Reference: PMC9939005 (Journal of medicinal chemistry, 2022)

Assays:
[1] = test system: HEL cells (containing the JAK2 V617F mutant); assay: STAT5 phosphorylation in HEL cells, Western blot; format: cell-based, Human; conditions: for concentration up to which no inhibition of STAT5 phosphorylation was observed: 11: 1-hour incubation
JAK2 JH2 WT = JAK2 JH2 WT (Homo sapiens, UniProt O60674); format: binding
[2] = Parallel Artificial Membrane Permeation Assay; conditions: for PAMPA permeability, in words: PAMPA values close or equal to 0; for Papp at 18 h: pH 7.4
[3] = test system: TF-1 cells (containing wild-type JAK2); assay: STAT5 phosphorylation in TF-1 cells, Western blot; format: cell-based, Human; conditions: 1 hour
[4] = test system: TF-1 cells starved of cytokine (WT JAK2); assay: Stimulation of STAT5 phosphorylation in TF-1 cells starved of cytokine; format: cell-based, Human; conditions: 0.1, 0.5, and 2 μM

JAK2 JH2 WT, sequence (O60674 536-812): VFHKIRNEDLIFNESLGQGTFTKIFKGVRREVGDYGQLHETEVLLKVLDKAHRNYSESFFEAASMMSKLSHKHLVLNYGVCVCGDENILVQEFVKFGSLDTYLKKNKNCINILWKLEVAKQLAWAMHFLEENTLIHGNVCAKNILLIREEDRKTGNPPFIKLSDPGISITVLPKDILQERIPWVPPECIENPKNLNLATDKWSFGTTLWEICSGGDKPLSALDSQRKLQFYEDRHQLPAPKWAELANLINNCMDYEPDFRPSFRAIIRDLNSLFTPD

For Nc1nc(Nc2ccc(S(N)(=O)=O)cc2)nn1C(=O)c1c(F)cccc1F [Compound 1, JNJ7706621, reference compound], which IC50 ([1]; Homo sapiens, HEL, read-out: IC50 (inhibition of STAT-5 phosphorylation)) is on record?
Its IC50 is 1000 to 5000 nM.

Which “loss in binding affinity compared to 2” value (JAK2 JH2 WT; JAK2 JH2) does the source give for Nc1nc(Nc2ccc(S(N)(=O)=O)cc2)nn1C(=O)Nc1ccc(-c2cccc(C(=O)O)n2)cc1 [Compound 3, 6-(4-(5-amino-3-((4-sulfamoylphenyl)amino)-1H-1,2,4-triazole-1-carboxamido)phenyl)picolinic acid] here?
The value was 3 fold.

With Nc1nc(Nc2ccc(S(N)(=O)=O)cc2)nn1C(=O)Nc1ccc(-c2cccc(C(=O)O)c2)cc1 [Compound 7, 4’-(5-amino-3-((4-sulfamoylphenyl)amino)-1H-1,2,4-triazole-1-carboxamido)-[1,1’-biphenyl]-3-carboxylic acid] as the molecule, how does the “PAMPA permeability, in words” value [2] read?
The value was “essentially impermeable”.

Which “loss in binding affinity compared to 7” value (JAK2 JH2 WT; JAK2 JH2) does the source give for COC(=O)c1cccc(-c2ccc(NC(=O)n3nc(Nc4ccc(S(N)(=O)=O)cc4)nc3N)cc2)c1 [Compound 8, Methyl 4’-(5-amino-3-((4-sulfamoylphenyl)amino)-1H-1,2,4-triazole-1-carboxamido)-[1,1’-biphenyl]-3-carboxylate] here?
Its value is “about 3 orders of magnitude”.

And the “PAMPA permeability, in words” value [2]?
Its value is “essentially impermeable”.

Which “loss in binding affinity compared to 7” value (JAK2 JH2 WT; JAK2 JH2) does the source give for Nc1nc(Nc2ccc(S(N)(=O)=O)cc2)nn1C(=O)Nc1ccc(-c2ccccc2)cc1 [Compound 9, N-([1,1’-biphenyl]-4-yl)-5-amino-3-((4-sulfamoylphenyl)amino)-1H-1,2,4-triazole-1-carboxamide] here?
Its value is “about 3 orders of magnitude”.

What about the “PAMPA permeability, in words” value [2] of the same molecule?
Its value is “essentially impermeable”.

Which “concentration up to which no inhibition of STAT5 phosphorylation was observed” value ([1]; HEL cells, Western blot) does the source give for Nc1nc(Nc2ccc(S(N)(=O)=O)cc2)nn1C(=O)Nc1ccc(-c2ccc(OCc3ccccc3)c(C(=O)O)c2)cc1 [Compound 11, 4’-(5-amino-3-((4-sulfamoylphenyl)amino)-1H-1,2,4-triazole-1-carboxamido)-4-(benzyloxy)-[1,1’-biphenyl]-3-carboxylic acid] here?
The value was > 40 µM.

Which results are given for Nc1nc(Nc2ccc(S(N)(=O)=O)cc2)nn1C(=O)Nc1ccc(-c2cc(OCc3ccccc3)cc(C(=O)O)c2)cc1 [Compound 12, 4’-(5-amino-3-((4-sulfamoylphenyl)amino)-1H-1,2,4-triazole-1-carboxamido)-5-(benzyloxy)-[1,1’-biphenyl]-3-carboxylic acid]?
concentration up to which no inhibition of STAT5 phosphorylation was observed ([1]; HEL cells, Western blot): > 25 µM; weaker binder than 11 (JAK2 JH2 WT; WT JAK2 JH2): 2 fold; increase in permeability compared to its isomer 11 ([2]; PAMPA): 3 fold

Which results are given for CNC(=O)c1ccc(Nc2nc(N)n(C(=O)Nc3ccc(-c4ccc(OCc5ccccc5)c(C(=O)O)c4)cc3)n2)cc1 [Compound 13, 4’-(5-amino-3-((4-(methylcarbamoyl)phenyl)amino)-1H-1,2,4-triazole-1-carboxamido)-4-(benzyloxy)-[1,1’-biphenyl]-3-carboxylic acid]?
inhibition of STAT-5 phosphorylation ([1]; HEL cells, 20 μM, Western blot): complete inhibition; concentration range in which inhibition of STAT5 phosphorylation was observed ([1]; HEL cells, tested at 2-30 μM, 1 hour): 10 to 20 µM; stronger binding for WT JH2 than 2 (JAK2 JH2 WT): 10 fold; reduced permeability (compared to 11) ([2]; PAMPA): ~2 fold; inhibition of STAT-5 phosphorylation ([3]; 20 μM, Western blot): complete inhibition; concentration range in which inhibition of STAT5 phosphorylation was observed ([3]; tested at 2-30 μM): 10 to 20 µM; stimulation of STAT5 phosphorylation [4]: no stimulation of STAT5 phosphorylation was observed

Which “concentration up to which no inhibition of STAT5 phosphorylation was observed” value ([1]; HEL cells, Western blot) does the source give for CNC(=O)c1ccc(Nc2nc(N)n(C(=O)Nc3ccc(-c4cc(OCc5ccccc5)cc(C(=O)O)c4)cc3)n2)cc1 [Compound 14, 4’-(5-amino-3-((4-(methylcarbamoyl)phenyl)amino)-1H-1,2,4-triazole-1-carboxamido)-5-(benzyloxy)-[1,1’-biphenyl]-3-carboxylic acid] here?
The value was > 30 µM.

And the “improved binding affinity compared to 12” value (JAK2 JH2 WT; WT JAK2 JH2)?
The value was 2 fold.

Which Papp at 18 h ([2]; PAMPA) does the source give for O=C(N[C@H](CO)[C@H](O)c1ccc([N+](=O)[O-])cc1)C(Cl)Cl [chloramphenicol, reference compound] here?
The Papp at 18 h was 4.36 to 4.99 ×10⁻⁶ cm/s.

Which Papp at 18 h ([2]; PAMPA) does the source give for Cn1c(=O)c2[nH]cnc2n(C)c1=O.O [theophylline, reference compound] here?
The Papp at 18 h was 0.27 to 0.33 ×10⁻⁶ cm/s.
